Reference: US6602987B1, “Azobenzene derivatives as labeling agents and intermediates thereof” (Yeda Research and Development Co., Ltd., priority 1998, dated 2003)

Legend:
[1] = tested on: affinity purified anti-HABA antibodies; test: Spectral shift of the HABA chromophore upon interaction with affinity purified anti-HABA antibodies; type: binding, rabbit
avidin = molecular target: T1, avidin (Gallus gallus, UniProt P02701); test: Spectral shift of the HABA chromophore upon interaction with avidin; type: binding
T1 construct: purchased STC Laboratories (Winnipeg, Canada)
T1 sequence (P02701 25-152): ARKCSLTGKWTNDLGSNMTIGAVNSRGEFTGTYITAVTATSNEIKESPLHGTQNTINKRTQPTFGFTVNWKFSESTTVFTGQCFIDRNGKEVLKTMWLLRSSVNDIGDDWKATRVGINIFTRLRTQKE
Experimental: (§1) The degree of modification is calculated, after purification from side-products, on the basis of UV absorption at 356 nm in PBS, at 415 nm in basic environment, or at 504 nm after addition of excess of avidin in PBS.
(§2) Interaction of the HABAylated proteins with avidin or with anti-HABA antibodies is verified by following the characteristic shift of the absorption of the HABA chromophore. Table 4 depicts the spectroscopic characteristics in the spectra range of the HABA-derivatives as free molecules (not bound to proteins) upon interaction with avidin or specific affinity purified antibodies.

[2] = UV-Vis spectroscopic characteristics of free HABA and HABA-derivatives in buffer; type: physicochemical
Experimental: as §1, §2

[3] = +affinity purified anti-HABA in PBS, (1:1)

| ε[cm^−1M^−1] [1, 3] | λmax (nm) [1, 3] | ε[cm^−1M^−1] (avidin; +Avidin in PBS, (20:1)) | λmax (nm) (avidin; +Avidin in PBS, (20:1)) | ε500 nm of bound HABA (avidin; at 500 nm, HABA bound to nonlabeled avidin or anti-HABA antibodies) | Structure (SMILES) | ε[cm^−1M^−1] at λmax ([2]; PBS) | λmax (nm) ([2]; PBS) | ε[cm^−1M^−1] at λmax ([1]; PBS/anti-HABA) | λmax (nm) ([1]; PBS/anti-HABA) | ε[cm^−1M^−1] at λmax (avidin; PBS/AVIDIN) | λmax (nm) (avidin; PBS/AVIDIN) | ε[cm^−1M^−1] at λmax ([2]; 0.1 M AcOH) | λmax (nm) ([2]; 0.1 M AcOH) | ε[cm^−1M^−1] at λmax ([2]; 0.1 M NaOH) | λmax (nm) ([2]; 0.1 M NaOH) | ε280 nm ([2]; at 280 nm) |
| --- | --- | --- | --- | --- | --- | --- | --- | --- | --- | --- | --- | --- | --- | --- | --- | --- |
| 50,000 cm^−1M^−1 | 482 nm | 35,500 cm^−1M^−1 | 500 nm | about 30,000 | O=C(O)c1ccccc1/N=N/c1ccc(O)cc1 [Compound 0, 4′-hydroxyazobenzene-2-carboxylic acid, reference compound] | 20,500 cm^−1M^−1 | 350 nm | – | – | – | – | – | – | – | – | – |
| – | – | – | – | – | NCCCCCCNC(=O)CCc1cc(N=Nc2ccccc2C(=O)O)ccc1O [Compound 16, 3′-(6-aminohexylaminocarbonylethyl)-4′-hydroxy-azobenzene-2-carboxylic acid] | 12,900 cm^−1M^−1 | 356 nm | 50,000 cm^−1M^−1 | 482 nm | 30,000 cm^−1M^−1 | 504 nm | 12,500 cm^−1M^−1 | 356 nm | 15,000 cm^−1M^−1 | 420 nm | 3,300 |
| – | – | – | – | – | O=C(CCc1cc(N=Nc2ccccc2C(=O)O)ccc1O)NCCCCCCNC(=O)ON1C(=O)CCC1=O [Compound 17, 3′-(6-(succinimidyloxycarbonylamino)hexylaminocarbonylethyl)4′-hydroxy-azo-benzene-2-carboxylic acid] | – | – | – | – | – | – | 12,200 cm^−1M^−1 | 356 nm | – | – | – |
